Tests used:
human S1P1 receptor = molecular target: T1, human S1P1 receptor (Homo sapiens, UniProt P21453); test: GTP γ35S binding assay for S1P1 activity; type: biochemical; conditions: membranes of cells stably expressing the S1P1 receptor, read-out: Activity potency: S1P1 receptor from GTP γ35S, S1P1 EC50
T1 construct: expressed in transfected cells; membranes were used
Experimental: Compounds were tested for S1P1 activity using the GTP γ^35S binding assay. These compounds may be assessed for their ability to activate or block activation of the human S1P1 receptor in cells stably expressing the S1P1 receptor.
GTP γ^35S binding was measured in the medium containing (mM) HEPES 25, pH 7.4, MgCl2 10, NaCl 100, dithitothreitol 0.5, digitonin 0.003%, 0.2 nM GTP γ^355, and 5 μg membrane protein in a volume of 150 μl. Test compounds were included in the concentration range from 0.08 to 5,000 nM unless indicated otherwise. Membranes were incubated with 100 μM 5′-adenylylimmidodiphosphate for 30 min, and subsequently with 10 μM GDP for 10 min on ice. Drug solutions and membrane were mixed, and then reactions were initiated by adding GTP γ^355 and continued for 30 min at 25° C. Reaction mixtures were filtered over Whatman GF/B filters under vacuum, and washed three times with 3 mL of ice-cold buffer (HEPES 25, pH7.4, MgCl2 10 and NaCl 100). Filters were dried and mixed with scintillant, and counted for ^35S activity using a 8-counter. Agonist-induced GTP γ^355 binding was obtained by subtracting that in the absence of agonist. Binding data were analyzed using a non-linear regression method. In case of antagonist assay, the reaction mixture contained 10 nM S1P in the presence of test antagonist at concentrations ranging from 0.08 to 5000 nM.

blood lymphocytes = test: Lymphopenia assay in mice; type: in vivo; conditions: 10 mg/Kg subcutaneously, female C57BL6 mice, after 5 hours, FIG. 1
Experimental: Test drugs are prepared in a solution containing 3% (w/v) 2-hydroxy propyl β-cyclodextrin (HPBCD) and 1% DMSO to a final concentration of 1 mg/ml, and subcutaneously injected to female C57BL6 mice (CHARLES RIVERS) weighing 20-25 g at the dose of 0.5 to 10 mg/Kg. Blood samples are obtained by puncturing the submandibular skin with a Goldenrod animal lancet at 5, 24, 48, 72, and 96 hrs post drug application. Blood is collected into microvettes (SARSTEDT) containing EDTA tripotassium salt. Lymphocytes in blood samples are counted using a HEMAVET Multispecies Hematology System, HEMAVET HV950FS (Drew Scientific Inc.).
A lymphopenia assay in mice; as previously described, was employed to measure the in vivo blood lymphocyte depletion after dosing with the test compound: [3-({3-bromo-4-[(5-phenylpentyl)thio]benzyl}amino)propyl]phosphonic acid Compound-1. This S1P1 modulator, [3-({3-bromo-4-[(5-phenylpentyl)thio]benzyl}amino)propyl]phosphonic acid Compound-1 is useful for S1P-related diseases and exemplified by the lymphopenia in vivo response. […] Lymphocytes in blood samples were counted using a HEMAVET Multispecies Hematology System, HEMAVET HV950FS (Drew Scientific Inc.). […]

T1 sequence (P21453 whole entry): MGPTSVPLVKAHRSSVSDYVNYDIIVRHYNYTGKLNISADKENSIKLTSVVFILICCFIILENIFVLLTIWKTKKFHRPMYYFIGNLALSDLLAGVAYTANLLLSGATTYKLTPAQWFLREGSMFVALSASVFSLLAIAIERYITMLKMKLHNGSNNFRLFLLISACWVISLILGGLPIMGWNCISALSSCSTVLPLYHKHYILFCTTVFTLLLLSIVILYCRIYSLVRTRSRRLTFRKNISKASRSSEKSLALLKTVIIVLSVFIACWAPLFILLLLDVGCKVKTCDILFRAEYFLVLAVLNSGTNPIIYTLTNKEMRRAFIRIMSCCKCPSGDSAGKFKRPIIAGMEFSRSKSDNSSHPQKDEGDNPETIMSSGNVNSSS

| SMILES | EC50 (human S1P1 receptor) | lymphocyte count (number of lymphocytes in blood) (blood lymphocytes) |
| --- | --- | --- |
| O=P(O)(O)CCCNCc1ccc(SCCCCCc2ccccc2)cc1Cl [Compound 4, [3-({2-chloro-4-[(5-phenylpentyl)thio]benzyl}amino)propyl]phosphonic acid] | 2.2 nM |  |
| O=P(O)(O)CCCNCc1ccc(SCCCCCc2ccccc2)c(Cl)c1 [Compound 5, [3-({3-chloro-4-[(5-phenylpentyl)thio]benzyl}amino)propyl]phosphonic acid] | 1.5 nM |  |
| O=P(O)(O)CCCNCc1ccc(SCCCCCc2ccccc2)cc1 [Compound 6, [3-({4-[(5-phenylpentyl)thio]benzyl}amino)propyl]phosphonic acid] | 3.3 nM |  |
| O=P(O)(O)CCCNCc1ccc(SCCCCCc2ccccc2)c(OC(F)(F)F)c1 [Compound 7, [3-({4-[(5-phenylpentyl)thio]-3-(trifluoromethoxy)benzyl}amino)propyl]phosphonic acid] | 0.6 nM |  |
| N#Cc1cc(CNCCCP(=O)(O)O)ccc1SCCCCCc1ccccc1 [Compound 8, [3-({3-cyano-4-[(5-phenylpentyl)thio]benzyl}amino)propyl]phosphonic acid] | 6.1 nM |  |
| Cc1cc(CNCCCP(=O)(O)O)ccc1SCCCCCc1ccc(F)cc1 [Compound 9, {3-[(4-{[5-(4-fluorophenyl)pentyl]thio}-3-methylbenzyl)amino]propyl}phosphonic acid] | 27.2 nM |  |
| COc1ccc(CCCCCSc2ccc(CNCCCP(=O)(O)O)cc2C(F)(F)F)cc1 [Compound 11, (3-{[4-{[5-(4-methoxyphenyl)pentyl]thio}-3-(trifluoromethyl)benzyl]amino}propyl)phosphonic acid] | 60.6 nM |  |
| O=P(O)(O)CCCNCc1ccc(SCCCCCc2ccc(Cl)cc2)c(C(F)(F)F)c1 [Compound 13, (3-{[4-{[5-(4-chlorophenyl)pentyl]thio}-3-(trifluoromethyl)benzyl]amino}propyl)phosphonic acid] | 4.6 nM |  |
| O=P(O)(O)CCCNCc1ccc(SCCCCCc2ccc(F)cc2)c(OC(F)(F)F)c1 [Compound 15, (3-{[4-{[5-(4-fluorophenyl)pentyl]thio}-3-(trifluoromethoxy)benzyl]amino}propyl)phosphonic acid] | 1.6 nM |  |
| Cc1ccc(CCCCCSc2ccc(CNCCCP(=O)(O)O)cc2OC(F)(F)F)cc1 [Compound 16, (3-{[4-{[5-(4-methylphenyl)pentyl]thio}-3 (trifluoromethoxy)benzyl]amino}propyl)phosphonic acid] | 3.5 nM |  |
| O=P(O)(O)C(F)(F)CCNCc1ccc(SCCCCCc2ccccc2)c(OC(F)(F)F)c1 [Compound 18, [1,1-difluoro-3-({4-[(5-phenylpentyl)thio]-3-(trifluoromethoxy)benzyl}amino)propyl]phosphonic acid] | 13.6 nM |  |
| CC(CCNCc1ccc(SCCCCCc2ccccc2)c(Cl)c1)P(=O)(O)O (stereo not drawn) [Compound 19, [3-({3-chloro-4-[(5-phenylpentyl)thio]benzyl}amino)-1-methylpropyl]phosphonic acid] | 8.8 nM |  |
| Cc1ccc(CCCCCSc2ccc(CNCCCP(=O)(O)O)cc2C)cc1 [Compound 23, {3-[(3-methyl-4-{[5-(4-methylphenyl)pentyl]thio}benzyl)amino]propyl}phosphonic acid] | 41.4 nM |  |

The next lines start with results.

| EC50 (human S1P1 receptor) | SMILES | lymphocyte count (number of lymphocytes in blood) (blood lymphocytes) |
| --- | --- | --- |
| 13.6 nM | O=P(O)(O)CCCNCc1ccc(SCCCCCc2ccccc2)cc1C(F)(F)F [Compound 3, [3-({4-[(5-phenylpentyl)thio]-2-(trifluoromethyl)benzyl}amino)propyl]phosphonic acid] |  |
| 5.4 nM | O=P(O)(O)CCCNCc1ccc(SCCCCCc2ccc(F)cc2)c(C(F)(F)F)c1 [Compound 10, (3-{[4-{[5-(4-fluorophenyl)pentyl]thio}-3-(trifluoromethyl)benzyl]amino}propyl)phosphonic acid] |  |
| 7.9 nM | O=P(O)(O)CCCNCc1ccc(SCCCCCc2ccc(Cl)cc2)c(OC(F)(F)F)c1 [Compound 14, (3-{[4-{[5-(4-chlorophenyl)pentyl]thio}-3-(trifluoromethoxy)benzyl]amino}propyl)phosphonic acid] |  |
| 4.8 nM | O=P(O)(O)C(F)(F)CCNCc1ccc(SCCCCCc2ccccc2)c(Cl)c1 [Compound 17, [3-({3-chloro-4-[(5-phenylpentyl)thio]benzyl}amino)-1,1-difluoropropyl]phosphonic acid] |  |
| 3.2 nM | Cc1cc(CNCCCP(=O)(O)O)ccc1SCCCCCc1ccccc1 [Compound 20, [3-({3-methyl-4-[(5-phenylpentyl)thio]benzyl}amino)propyl]phosphonic acid] |  |
| 0.3 nM | O=P(O)(O)CCCNCc1ccc(SCCCCCc2ccccc2)c(F)c1 [Compound 21, [3-({3-fluoro-4-[(5-phenylpentyl)thio]benzyl}amino)propyl]phosphonic acid] |  |
| 2.4 nM | N#Cc1cc(CNCCCP(=O)(O)O)ccc1SCCCCCc1ccc(F)cc1 [Compound 22, {3-[(3-cyano-4-{[5-(4-fluorophenyl)pentyl]thio}benzyl)amino]propyl}phosphonic acid] |  |
| 8.7 nM | O=P(O)(O)CCCNCc1ccc(SCCCCCc2ccc(F)cc2)cc1C(F)(F)F [Compound 24, (3-{[4-{[5-(4-fluorophenyl)pentyl]thio}-2-(trifluoromethyl)benzyl]amino}propyl)phosphonic acid] |  |
| 0.9 nM | O=P(O)(O)CCCNCc1cc(F)c(SCCCCC2(c3ccccc3)CCCCC2)cc1F [Compound 50, {3-[(2,5-difluoro-4-{[4-(1-phenylcyclohexyl)butyl]thio}benzyl)amino]propyl}phosphonic acid] |  |
| 67.9 nM | COc1ccc(CCCCCSc2ccc(CNCCCP(=O)(O)O)cc2OC(F)(F)F)cc1 [Compound 163, (3-{[4-{[5-(4-methoxyphenyl)pentyl]thio}-3-(trifluoromethoxy)benzyl]amino}propyl)phosphonic acid] |  |
| 2 nM | O=P(O)(O)CCCNCc1ccc(SCCCCC2(c3ccccc3)CCCCC2)c(Cl)c1 [Compound 164, {3-[(3-chloro-4-{[4-(1-phenylcyclohexyl)butyl]thio}benzyl)amino]propyl}phosphonic acid] |  |
| 13.1 nM | CC(C)(CCCCSc1ccc(CNCCCP(=O)(O)O)cc1Br)c1ccccc1 [Compound 165, [3-({3-bromo-4-[(5-methyl-5-phenylhexyl)thio]benzyl}amino)propyl]phosphonic acid] |  |
| 1.8 nM | O=P(O)(O)CCCNCc1ccc(SCCCCCc2ccccc2)c(Br)c1 [Compound-1, [3-({3-bromo-4-[(5-phenylpentyl)thio]benzyl}amino)propyl]phosphonic acid] | < 1 10^3/μL blood |
